Measurements: paper PMC6433685, “Histone deacetylase inhibitor LMK235 attenuates vascular constriction and aortic remodelling in hypertension” (Journal of Cellular and Molecular Medicine, 2019)

Columns and labels:
A10 cells [1] = test: MTT cell viability assay in A10 cells; type: cell-based, rat; settings: up to 1000 nmol/L, 24 hours
Experimental: A10 vascular smooth muscle cells (VSMCs) were incubated with Dulbecco's modified Eagle medium (DMEM) with 4500 mg/L glucose containing 10% foetal bovine serum (FBS). Passages were carried out every 2 or 3 days. VSMCs were maintained in DMEM in the presence of 10% FBS with low glucose (1000 mg/L). Human umbilical vein endothelial cells (HUVECs) were obtained from Gibco (Waltham, MA, USA). HUVECs were grown in an endothelial cell basal medium (EBM) with EGM‐2 bullet kit (Lonza, Walkersville, MD) and maintained at 37°C under 5% CO2. Cells were cultured for 5‐7 passages.
Cell viability was tested by the MTT [3‐(4,5‐dimethylthiazol‐2‐yl)‐2,5‐diphenyl tetrazolium bromide] assay. A10 cells were seed into 24‐well culture dishes and serum‐starved overnight. Cells were treated with LMK235 or vehicle for 24 hours at the indicated concentrations. MTT reagent was added to the medium for 2 hours and then dissolved in DMSO, and the absorbance was measured at 570 nm. For assessing cell proliferation, A10 cells were transfected with pCMV‐SPORT6‐CaMKIIα in a dose‐dependent manner. The MTT assay was performed as described above.

HDAC3 = biological target: T1, HDAC3 (Homo sapiens, UniProt O15379); test: HDAC3 fluorogenic enzyme assay kit (BPS Bioscience), cell-free; type: biochemical; settings: 0.001-10 μmol/L inhibitor
T1 construct: purchased BPS Bioscience 50063

HDAC4 = biological target: T2, HDAC4 (Homo sapiens, UniProt P56524); test: HDAC4 fluorogenic enzyme assay kit (BPS Bioscience), cell-free; type: biochemical; settings: 0.001-10 μmol/L inhibitor
T2 construct: purchased BPS Bioscience 50064

HDAC9 = biological target: T3, HDAC9 (Homo sapiens, UniProt Q9UKV0); test: HDAC9 fluorogenic enzyme assay kit (BPS Bioscience), cell-free; type: biochemical; settings: 0.001-10 μmol/L inhibitor
T3 construct: purchased BPS Bioscience 50069

[2] = tested on: angiotensin II‐induced hypertensive mice; test: Systolic BP (tail-cuff) in angiotensin II-infusion mice; type: in vivo, CD‐1 mice; settings: Ang II-infusion mice; 1 mg/kg/day i.p. for 7 days
Experimental: All animal procedures were approved by the Animal Experimental Committee of Chonnam National University Medical School (CNU IACUC‐H‐2014‐47) and carried out in accordance with the Guide for the Care and Use of Laboratory Animals (US National Institutes of Health Publications, 8th edition, 2011). CD‐1 mice (8 weeks old, 30‐35 g) were used in this study. Hypertension was induced by angiotensin II (Ang II, 1.3 mg/kg/day) infusion using 14‐day micro‐osmotic pumps (Alzet, model 1002; infusion rate of 0.25 μL/h) or saline alone. Ang II osmotic pumps were implanted subcutaneously after the injection of ketamine (120 mg/kg) and xylazine (6.2 mg/kg). One week after Ang II infusion, mice were administered LMK235 (1 or 3 mg/kg/day) or vehicle (dimethylsulphoxide [DMSO]) via intraperitoneal injection for 7 days. Mice were divided into three groups (n = 10‐12 per group): sham + vehicle, Ang II + vehicle, and Ang II + LMK235.
(§1) Systolic BP was measured by the tail‐cuff method (Visitech Systems, BP‐2000). Animals (mice and rats) were trained to allow for the measuring of BP before administration of the drug. Animals were trained to enter the holder at the same time more than three times a week to measure BP. For angiotensin II‐mice, systolic BP was measured when the mice were awake the day before they are killed. For SHRs, systolic BP was measured daily for 2 weeks.

HDAC2 = biological target: T4, HDAC2 (Homo sapiens, UniProt Q92769); test: HDAC2 fluorogenic enzyme assay kit (BPS Bioscience), cell-free; type: biochemical; settings: 0.001-10 μmol/L inhibitor
T4 construct: purchased BPS Bioscience 50062

A10 cells [3] = test: Western blot in A10 cells; type: cell-based, rat
Experimental: Cells were lysed in RIPA lysis buffer [150 mmol/L NaCl, 1% Triton X‐100, 1% sodium deoxycholate, 50 mmol/L Tris‐HCl pH 7.5, 2 mmol/L EDTA, 1 mmol/L PMSF, 1 mmol/L DTT, 1 mmol/L Na3VO4, and 5 mmol/L NaF] with protease inhibitor cocktail and sonicated. Approximately 30 μg of protein was separated by 10% sodium dodecyl sulphate‐polyacrylamide gel electrophoresis (SDS‐PAGE) and transferred to polyvinylidene difluoride (PVDF) membranes. After blocking with 5% skim milk for 1 hour, proteins were incubated with the primary antibodies overnight: anti‐cyclin D1 (1:1000), anti‐HDAC1 (1:1000), anti‐HDAC2 (1:1000), anti‐HDAC4 (1:1000) and anti‐HDAC5 (1:1000). As secondary antibodies, horse radish peroxidase‐linked antimouse or anti‐rabbit antibodies were used. Protein bands were visualized using Immobilon Western Detection Reagents (Millipore, Billerica, MA, USA). The Bio‐ID software was used to quantify protein expression (Vilber Lourmat, Eberhardzell, Germany).

[4] = tested on: spontaneously hypertensive rats (SHRs); test: Systolic BP (tail-cuff) in spontaneously hypertensive rats; type: in vivo
Experimental: For the essential hypertension animal experiment, SHRs were used. The SHR is the most used model animal model for hypertension and is generally regarded as an essential hypertension model.13 SHRs (6 weeks old, approximately 170 g) were purchased from Charles River (Yokohama, Japan). Rats were intraperitoneally administered LMK235 or vehicle every 3 days for 2 weeks (n = 4 per group).
as §1

A10 cells [5] = test: qRT-PCR in CaMKIIα-transfected A10 cells; type: cell-based, rat
Experimental: A10 cells were seeded into 12‐well dishes. A10 cells were transfected with the indicated concentrations of pCMV‐SPORT6‐CaMKIIα. After 24 hours of transfection, total RNA was extracted and quantitative real time polymerase chain reaction (qRT‐PCR) was performed. For knockdown of HDAC5, rat HDAC5 siRNA or sicontrol was used in A10 cells using RNAiMAX reagent according to the manufacturer's guidelines. A concentration of 100 nmol/L of siRNA was used.
Total RNA from aortic tissue was isolated with TRIzol reagent (Invitrogen Life Technologies), and 1 μg of RNA was used for the reverse transcription reaction with TOPscript RT DryMIX (Enzynomics, South Korea). Quantification of mRNA levels was performed with the SYBR Green PCR kit (Enzynomics, South Korea).

T2 sequence (P56524 whole entry): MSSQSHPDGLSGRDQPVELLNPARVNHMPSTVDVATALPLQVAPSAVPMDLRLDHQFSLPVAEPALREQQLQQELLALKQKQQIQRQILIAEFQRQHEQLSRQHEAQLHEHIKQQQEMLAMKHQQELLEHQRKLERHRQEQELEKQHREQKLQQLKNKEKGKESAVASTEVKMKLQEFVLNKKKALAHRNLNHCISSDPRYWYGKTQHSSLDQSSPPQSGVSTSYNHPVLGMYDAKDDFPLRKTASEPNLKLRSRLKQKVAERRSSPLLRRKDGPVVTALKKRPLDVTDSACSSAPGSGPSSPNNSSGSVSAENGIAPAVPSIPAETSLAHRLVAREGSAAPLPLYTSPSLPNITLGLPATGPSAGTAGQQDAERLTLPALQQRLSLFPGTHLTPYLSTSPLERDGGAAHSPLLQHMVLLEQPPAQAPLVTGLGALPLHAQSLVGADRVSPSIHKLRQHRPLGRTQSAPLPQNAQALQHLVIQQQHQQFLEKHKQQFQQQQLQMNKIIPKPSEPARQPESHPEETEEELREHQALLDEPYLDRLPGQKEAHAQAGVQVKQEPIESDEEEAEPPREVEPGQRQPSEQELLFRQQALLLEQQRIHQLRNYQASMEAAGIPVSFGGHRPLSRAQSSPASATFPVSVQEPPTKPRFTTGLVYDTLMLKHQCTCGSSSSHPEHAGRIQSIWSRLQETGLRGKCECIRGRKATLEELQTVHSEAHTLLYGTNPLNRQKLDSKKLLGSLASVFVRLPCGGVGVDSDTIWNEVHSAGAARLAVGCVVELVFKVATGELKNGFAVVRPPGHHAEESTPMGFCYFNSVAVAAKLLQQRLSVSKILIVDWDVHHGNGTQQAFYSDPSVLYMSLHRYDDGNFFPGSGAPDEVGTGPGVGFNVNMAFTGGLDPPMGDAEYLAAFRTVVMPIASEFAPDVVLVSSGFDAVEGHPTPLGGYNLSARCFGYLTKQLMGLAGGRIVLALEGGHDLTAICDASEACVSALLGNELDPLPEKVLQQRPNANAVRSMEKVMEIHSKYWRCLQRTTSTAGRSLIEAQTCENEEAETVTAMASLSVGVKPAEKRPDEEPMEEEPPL
T4 sequence (Q92769 whole entry): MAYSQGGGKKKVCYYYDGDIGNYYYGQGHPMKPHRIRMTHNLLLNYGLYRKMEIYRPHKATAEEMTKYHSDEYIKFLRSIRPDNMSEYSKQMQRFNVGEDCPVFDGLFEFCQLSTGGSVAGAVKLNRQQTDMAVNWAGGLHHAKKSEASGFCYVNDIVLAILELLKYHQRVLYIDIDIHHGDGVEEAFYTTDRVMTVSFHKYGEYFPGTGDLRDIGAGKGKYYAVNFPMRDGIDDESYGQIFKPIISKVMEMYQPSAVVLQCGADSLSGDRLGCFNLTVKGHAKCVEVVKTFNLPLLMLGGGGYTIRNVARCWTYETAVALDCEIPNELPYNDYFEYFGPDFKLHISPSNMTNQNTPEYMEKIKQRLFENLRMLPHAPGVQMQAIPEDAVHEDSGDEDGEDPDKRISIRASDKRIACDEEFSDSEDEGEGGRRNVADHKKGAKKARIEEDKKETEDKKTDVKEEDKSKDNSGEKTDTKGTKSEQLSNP
T1 sequence (O15379 whole entry): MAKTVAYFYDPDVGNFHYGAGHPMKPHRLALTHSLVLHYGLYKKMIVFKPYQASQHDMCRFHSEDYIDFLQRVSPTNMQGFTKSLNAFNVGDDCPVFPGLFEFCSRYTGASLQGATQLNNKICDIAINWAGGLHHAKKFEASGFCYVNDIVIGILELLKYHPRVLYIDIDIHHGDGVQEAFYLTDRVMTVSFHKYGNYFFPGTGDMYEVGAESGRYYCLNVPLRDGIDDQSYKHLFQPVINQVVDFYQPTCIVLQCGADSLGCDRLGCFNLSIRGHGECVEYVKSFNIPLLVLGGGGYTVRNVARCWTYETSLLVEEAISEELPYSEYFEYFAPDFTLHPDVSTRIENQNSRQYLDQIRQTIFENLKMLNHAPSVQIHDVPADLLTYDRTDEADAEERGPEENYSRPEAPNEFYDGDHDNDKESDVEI
T1 sequence (Q9Y618 395-489 partner limits assumed): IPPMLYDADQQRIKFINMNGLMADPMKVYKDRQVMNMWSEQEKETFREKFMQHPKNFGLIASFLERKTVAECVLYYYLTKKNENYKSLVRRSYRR
T3 sequence (Q9UKV0 whole entry): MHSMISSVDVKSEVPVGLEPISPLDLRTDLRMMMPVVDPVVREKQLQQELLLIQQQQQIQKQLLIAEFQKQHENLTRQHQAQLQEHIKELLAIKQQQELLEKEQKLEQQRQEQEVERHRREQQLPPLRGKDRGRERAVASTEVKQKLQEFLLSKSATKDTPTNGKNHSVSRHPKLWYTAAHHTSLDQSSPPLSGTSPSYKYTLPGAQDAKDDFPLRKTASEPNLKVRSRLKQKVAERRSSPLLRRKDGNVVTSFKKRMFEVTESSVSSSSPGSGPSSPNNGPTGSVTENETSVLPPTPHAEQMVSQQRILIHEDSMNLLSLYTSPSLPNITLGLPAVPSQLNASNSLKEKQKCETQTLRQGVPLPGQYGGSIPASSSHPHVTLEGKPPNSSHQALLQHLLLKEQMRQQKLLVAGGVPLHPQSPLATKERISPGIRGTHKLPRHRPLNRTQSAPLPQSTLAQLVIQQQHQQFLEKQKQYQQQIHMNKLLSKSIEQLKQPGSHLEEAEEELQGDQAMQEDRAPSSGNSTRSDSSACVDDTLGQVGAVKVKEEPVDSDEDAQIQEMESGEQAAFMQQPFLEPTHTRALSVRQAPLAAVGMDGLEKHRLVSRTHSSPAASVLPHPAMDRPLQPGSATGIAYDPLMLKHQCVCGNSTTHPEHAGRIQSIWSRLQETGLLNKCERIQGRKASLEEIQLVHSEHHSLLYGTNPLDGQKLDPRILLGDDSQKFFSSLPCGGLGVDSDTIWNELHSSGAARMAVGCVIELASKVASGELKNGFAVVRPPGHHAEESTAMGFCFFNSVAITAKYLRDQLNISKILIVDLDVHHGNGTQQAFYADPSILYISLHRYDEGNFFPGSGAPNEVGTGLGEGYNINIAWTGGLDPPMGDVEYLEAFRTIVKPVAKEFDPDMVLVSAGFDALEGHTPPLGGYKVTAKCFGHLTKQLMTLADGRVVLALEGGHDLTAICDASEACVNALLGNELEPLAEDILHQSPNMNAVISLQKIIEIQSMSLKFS

Compound: Cc1cc(C)cc(C(=O)NOCCCCCC(=O)NO)c1 [LMK235]
- cell viability (MTT) (A10 cells [1]): not affected
- IC50 (HDAC3): 37 nM
- IC50 (HDAC4): > 20000 nM
- IC50 (HDAC9): > 20000 nM
- systolic BP [2]: sufficient to lower systolic BP
- IC50 (HDAC2): 55 nM
- protein expression of class I and IIa/b HDAC (A10 cells [3]; A10 cells without CaMKIIα transfection, 18 h): reduced protein expression
- CaMKIIα-induced cyclin D1 protein (A10 cells [3]; CaMKIIα-transfected A10 cells): reduced
- HDAC4 and HDAC5 proteins (A10 cells [3]; CaMKIIα-transfected A10 cells): significantly reduced
- protein expression of HDAC1 and HDAC2 (A10 cells [3]; CaMKIIα-transfected A10 cells, 18 h): significantly reduced
- hypertension lowering effect ([4]; 1 mg/kg/day (data not shown)): did not exhibit a hypertension lowering effect
- duration of BP lowering effect ([4]; 3 mg/kg i.p. every 3 days): 2 days
- systolic BP ([4]; 3 mg/kg i.p. every 3 days, 2 days after treatment): significantly lowered
- systolic BP ([4]; 3 mg/kg i.p. every 3 days, 3 days after administration): restored to a comparable level
- cyclin D1 mRNA levels induced by overexpression of CaMKIIα (A10 cells [5]; A10 cells, 1 μmol/L, 24 h): reduced
- mRNA levels of overexpressed CaMKIIα (A10 cells [5]; A10 cells, 1000 nmol/L, 24 hours): did not change
- mRNA expression of HDAC1, 2, 3, 4, 5, 7 (A10 cells [5]; CaMKIIα-transfected A10 cells, 1 μmol/L, 24 h): significantly reduced
